Results from the NIST ThermoML archive (doi:10.1021/je040006u).

Test: xn = mol fraction of the nth substance listed
Conditions: 101.3 kPa, Liquid, Pycnometric method

CCCNCCC [dipropylamine] + COCCO
mass density [kg/m3]
Conditions	291.15 K	293.15 K	298.15 K	303.15 K	308.15 K
x2 = 0	738.47	737.2	732.56	728.2	723.64
x2 = 0.0501	746.83	745.26	740.37	735.86	731.07
x2 = 0.1	754.98	753.42	748.52	743.91	739.04
x2 = 0.1502	763.4	761.9	756.9	752.27	747.36
x2 = 0.2001	772.06	770.51	765.5	760.85	755.94
x2 = 0.2508	781.14	779.61	774.59	769.92	764.98
x2 = 0.2999	790.26	788.66	783.68	778.97	774.07
x2 = 0.3502	799.92	798.35	793.28	788.57	783.65
x2 = 0.4	809.92	808.21	803.2	798.45	793.51
x2 = 0.45	820.34	818.67	813.61	808.82	803.85
x2 = 0.4999	831.06	829.4	824.3	819.53	814.5
x2 = 0.5507	842.47	840.75	835.6	830.8	825.78
x2 = 0.5982	853.45	851.69	846.6	841.77	836.69
x2 = 0.6502	866.02	864.26	859.11	854.24	849.17
x2 = 0.6999	878.41	876.59	871.47	866.58	861.5
x2 = 0.7489	891.21	889.34	884.21	879.3	874.18
x2 = 0.8015	905.66	903.7	898.54	893.64	888.51
x2 = 0.8496	919.22	917.32	912.15	907.23	902.13
x2 = 0.8997	934.42	932.35	927.21	922.3	917.11
x2 = 0.9497	950.19	948.22	943.1	938.3	933.24
